Here are results for one compound from patent US6720345B1, “Semicarbazone derivatives and their use as thrombopoietin mimetics” (SmithKline Beecham Corporation, priority 1999, dated 2004).

This experiment addresses T1, TPO receptor (Homo sapiens, UniProt P40238).
T1 construct: expressed in transfected cells; host or cells: murine BaF3 cells (TPO-responsive line)
T1 sequence (P40238 26-635): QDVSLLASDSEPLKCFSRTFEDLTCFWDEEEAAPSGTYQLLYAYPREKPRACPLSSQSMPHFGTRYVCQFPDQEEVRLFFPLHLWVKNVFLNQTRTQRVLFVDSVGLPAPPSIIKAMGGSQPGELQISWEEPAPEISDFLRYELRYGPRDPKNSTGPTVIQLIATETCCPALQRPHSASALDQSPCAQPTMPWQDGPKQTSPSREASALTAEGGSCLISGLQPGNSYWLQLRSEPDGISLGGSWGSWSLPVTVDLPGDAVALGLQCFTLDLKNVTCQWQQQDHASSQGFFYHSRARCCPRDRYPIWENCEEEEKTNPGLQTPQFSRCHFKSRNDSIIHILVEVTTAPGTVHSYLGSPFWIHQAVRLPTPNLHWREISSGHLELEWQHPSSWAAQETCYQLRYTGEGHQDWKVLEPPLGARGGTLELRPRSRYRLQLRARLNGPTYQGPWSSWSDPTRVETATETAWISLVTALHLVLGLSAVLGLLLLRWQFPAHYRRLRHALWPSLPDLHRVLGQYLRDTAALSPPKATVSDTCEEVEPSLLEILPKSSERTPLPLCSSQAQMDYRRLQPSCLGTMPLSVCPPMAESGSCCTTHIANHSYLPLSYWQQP
Description: Luciferase assay in TPO-responsive BaF3 cell line. The experiment is classed as cell-based, murine. Particulars: at a concentration of 10 uM. On the procedure: Compounds of the present invention were tested for potency as mimetics of the TPO receptor in a Luciferase assay such as described in Lamb, et al., Nucleic Acids Research 23: 3283-3289 (1995) and Seidel, et al., Proc. Natl. Acad. Sci., USA 92: 3041-3045 (1995) by substituting a TPO-responsive BaF3 cell line (Vigon et al. Proc. Natl. Acad. Sci. USA 1992, 89, 5640-5644) for the HepG2 cells utilized therein. The murine BaF3 cells express TPO receptors and closely match the pattern of STAT (signal transducers and activators of transcription) activation observed in primary murine and human bone marrow cells in response to TPO.

In the case of `O=C1CSC(=S)N1N=Cc1cc(Br)cc(Br)c1O` [Compound A, 3-[(2-hydroxy-3,5-dibromophen-1-yl)methyleneamino]-2-thioxothiazolidin-4-one], the “activation, % of control (control is the maximal response to TPO)” value is listed as “about 9 % of control”.
